Data on 4 compounds can be found in patent US20080090895A1, “Novel Pharmaceutical Composition And Their Uses Thereof For Controlling The Different Forms Of Addiction To Drugs” (Trimaran Limited, priority 2004, published 2008).

Counter-ions that a name gives are not always drawn.

Assay [1] relates to male mice of OF1 strain. The note with it: Baamonde et al., 1992; cited from earlier work.
The subject of assay [2] is male mice of OF1 strain. The assay can be described thus: Measurement of the analgesia by the hotplate test. The class given is in vivo. On the procedure: (§1) The animals used in this study are male mice of OF1 strain weighing about 20 g at the start of the experiments (Charles River, France). They live in an environment whose daily lighting cycle (07:30 h; 17:30 h) is constant throughout the year, and the temperature is maintained at about 22° C. The mice have free access to water and food, and the experiments are performed in accordance with the international rules on ethics in animal experimentation.
(§2) The animals are treated chronically via the intraperitoneal route (IP) with amisulpride or physiological saline. The injections are performed twice a day, with an interval of about eight hours between each administration, over a period ranging between five days and three weeks. […] RB101 is administered on the day of the test intravenously (IV), 10 minutes before the start of the test (except for the measurements of locomotor activity performed immediately after injection).
3.2 Measurement of the Analgesia by the Hotplate Test
The mice are placed individually inside a cylinder, on a plate heated to 52±1° C. by a water circuit. The lag time for the jumping of the mice is measured, the value 100 of the percentage of analgesia corresponding to a time limited to 240 seconds in order to avoid skin lesions. The test is performed 10 minutes after injection of RB101 (5 mg/kg, IV) or of the vehicle. The results are expressed as a percentage of analgesia calculated by means of the following formula: (mean of the jumping lag times for the treated group—mean of the jumping lag times for the control group)/(240−mean of the jumping lag times for the control group)×100. The results are expressed as mean ±sem.

The test system of assay [3] is male mice of OF1 strain. Particulars: Baamonde et al., 1992; Browne, 1980; cited from earlier work.
Assay [4] concerns male mice of OF1 strain. The assay can be described thus: Measurement of the locomotor activity. The class given is in vivo.
Assay [5] has as its system male mice of OF1 strain. The assay can be described thus: Test of forced swimming (Porsolt's test): model of depression. The note with it: 0.25 mg/kg, IV. The class given is in vivo. On the procedure:
as §1, §2
3.3 Test of Forced Swimming (Porsolt's Test): Model of Depression
The mice are placed individually in a cylindrical container filled to a height of 15 cm with water, the water being at room temperature. After a delay of 2 minutes, the total immobile time of the animal is measured for 4 minutes. The movements necessary for the animal to keep its head above water are not counted.

In assay [6] the test system is male mice of OF1 strain. The assay can be described thus: Conditioned preference of place: measurement of the psychic dependency. The class given is in vivo. As for the experimental part:
as §1, §2
3.4 Conditioned Preference of Place: Measurement of the Psychic Dependency
The apparatus for conditioned preference of place consists of a box divided into three separate compartments: a black compartment with a smooth floor, a black and white stripy compartment with a rough floor, and a neutral central compartment.
The Test Proceeds in 3 Phases:
• a pretest phase: the animal is placed in the neutral central compartment and has free access to the three compartments of the apparatus for 20 minutes. The time spent in each compartment is recorded using a camera connected to a computer. The mice showing a spontaneous preference for one of the compartments (i.e. spending more than 75% of the allotted time in one of the side compartments) are removed from the experiment.
After this first session, the animals are randomized in order to assign a treatment to them (morphine or physiological saline, SC) and the compartment in which they will receive the drug (black or black and white stripy compartment). […]

As to `CSCC[C@H](N)CSSCC(Cc1ccccc1)C(=O)N[C@@H](Cc1ccccc1)C(=O)OCc1ccccc1` (stereo partly drawn) [RB101], the “effect of RB101 alone on immobile time in forced swimming (literature)” value with male mice of OF1 strain [1] is “reduces the immobile time”. For the same compound, the “percentage of analgesia (hotplate, jumping lag time)” value in the assay with male mice of OF1 strain [2] (RB101 5 mg/kg IV on the day of the test, alone or after amisulpride treatment for five days (20 mg/kg IP twice/day)) is 38.4%±10.8%; in the assay on male mice of OF1 strain [2] (RB101 dose effect, 5 mg/kg intravenously, 10 minutes before the test, mean ±sem) it was 45.2%±10.6%. In the assay on male mice of OF1 strain [3], the “effect of the substance alone on locomotor activity in mice (literature)” value is “increase in locomotor activity”.
Take `CCN1CCCC1CNC(=O)c1cc(S(=O)(=O)CC)c(N)cc1OC` (stereo not drawn) [amisulpride]: in the assay on male mice of OF1 strain [4] (doses tested 0.5, 2, 10, 20 and 50 mg/kg), the “dose at which the reduction in locomotor activity is significant” value is listed as ≥ 10 mg/kg.
For the compound `CCC(=O)C(CC(C)N(C)C)(c1ccccc1)c1ccccc1` (stereo not drawn) [methadone, Methadone hydrochloride], the “analgesia of methadone alone in the hotplate test” value with male mice of OF1 strain [2] (0.25 mg/kg, IV) is “pronounced analgesia”. The “effect of the substance alone on locomotor activity in mice (literature)” value with male mice of OF1 strain [3] is reported as “hyperlocomotor activity”. Also, the “effect of methadone alone in forced swimming” value with male mice of OF1 strain [5] is reported as “did not show a significant effect”. In addition, the “effect of methadone alone in locomotor activity” value with male mice of OF1 strain [4] (0.25 mg/kg, IV) is reported as “did not show a significant effect”.
On to `CN1CC[C@]23c4c5ccc(O)c4O[C@H]2[C@@H](O)C=C[C@H]3[C@H]1C5.Cl` [morphine, morphine hydrochloride], for which the “conditioned place preference (test 1)” value in the assay on male mice of OF1 strain [6] (morphine 10 mg/kg SC conditioning, relative to the saline solution group) is “Place preference is observed”. In addition, in the assay on male mice of OF1 strain [6] (morphine-conditioned mice, amisulpride 20 mg/kg IP twice a day for 5 days, RB101 IV on the day of test 2 (sixth day), or no such treatment, relative to control group), the “conditioned place preference (test 2)” value is “tendency toward persistence of the place preference”. Also, the “conditioned place preference (test 3)” value with male mice of OF1 strain [6] (morphine-conditioned mice, four days after test 2, no RB101 on the day of test 3, with or without prior amisulpride+RB101 treatment) is listed as “A place preference is found”.
